Laboratory results as given in patent US20150275313A1, “MARKER FOR DIAGNOSIS OF BLADDER CANCER RECURRENCE” (Dong-A University Research Foundation For Industry-Academy …, priority 2014, published 2015).

Legend:
Format in all cases: cell-based
[1] = tested on: invasive cell lines (5637, EJ); experiment: Cell viability of bladder cancer cell lines treated with doxorubicin; settings: invasive cell lines (5637, EJ) compared with non-muscle invasive cell lines (UC5, UC9); doxorubicin 0 to 50 μM for 12 hours or 24 hours; FIG. 9A
FOXM1 and CCNB1 genes = experiment: Expression of FOXM1 and CCNB1 genes in bladder cancer cell lines treated with doxorubicin; settings: invasive cell lines (5637, EJ); doxorubicin 0 to 50 μM for 12 hours or 24 hours; FIG. 9B
Method: (§1) Further, the inventors of the present disclosure studied expression of FOXM1, CCNB1 genes, and FANCB, FANCC, and FANCD2 genes relevant to Fanconi anemia pathways after non-muscle invasive cell lines (UC5, UC9) and invasive cell lines (5637, EJ) were treated with doxorubicin used as an anticancer drug for bladder cancer at a concentration of 0 to 50 μM for 12 hours or 24 hours.

[2] = tested on: FANCB, FANCC, and FANCD2 genes; experiment: Expression of DNA repair genes in bladder cancer cell lines treated with doxorubicin; settings: non-muscle invasive cell lines (UC5, UC9) and invasive cell lines (5637, EJ); doxorubicin 0 to 50 μM for 12 hours or 24 hours; FIG. 9C
Method: as §1
Furthermore, in the non-muscle invasive cell lines (UC5, UC9) and invasive cell lines (5637, EJ) treated as described above, expression of the genes relevant to DNA repair was checked.

COc1cccc2c1C(=O)c1c(O)c3c(c(O)c1C2=O)C[C@@](O)(C(=O)CO)C[C@@H]3O[C@H]1C[C@H](N)[C@H](O)[C@H](C)O1 [doxorubicin]
high: cell viability [1] | expression of FOXM1 and CCNB1 genes (FOXM1 and CCNB1 genes) | expression of the FANCB, FANCC, and FANCD2 genes relevant to Fanconi anemia pathways [2]
